Experiments:
[1] = oral dosing, rats; Raoof et al., Pharm. Res. 1996; cited from earlier work
human SMVT (SLC5A6) = target: T1, human SMVT (SLC5A6) (Homo sapiens, UniProt Q9Y289); assay: Electrogenic transport in SMVT-expressing Xenopus oocytes (two-electrode voltage-clamp); format: cell-based; details: tested at 0.5 mM on oocytes expressing SMVT; membrane potential -60 mV
T1 construct: The complete open reading frame of human SMVT (SLC5A6) was amplified; expressed in transfected cells; host or cells: Xenopus oocytes injected with cRNA transcribed in vitro from the pMO plasmid
T1 sequence (Q9Y289 1-635): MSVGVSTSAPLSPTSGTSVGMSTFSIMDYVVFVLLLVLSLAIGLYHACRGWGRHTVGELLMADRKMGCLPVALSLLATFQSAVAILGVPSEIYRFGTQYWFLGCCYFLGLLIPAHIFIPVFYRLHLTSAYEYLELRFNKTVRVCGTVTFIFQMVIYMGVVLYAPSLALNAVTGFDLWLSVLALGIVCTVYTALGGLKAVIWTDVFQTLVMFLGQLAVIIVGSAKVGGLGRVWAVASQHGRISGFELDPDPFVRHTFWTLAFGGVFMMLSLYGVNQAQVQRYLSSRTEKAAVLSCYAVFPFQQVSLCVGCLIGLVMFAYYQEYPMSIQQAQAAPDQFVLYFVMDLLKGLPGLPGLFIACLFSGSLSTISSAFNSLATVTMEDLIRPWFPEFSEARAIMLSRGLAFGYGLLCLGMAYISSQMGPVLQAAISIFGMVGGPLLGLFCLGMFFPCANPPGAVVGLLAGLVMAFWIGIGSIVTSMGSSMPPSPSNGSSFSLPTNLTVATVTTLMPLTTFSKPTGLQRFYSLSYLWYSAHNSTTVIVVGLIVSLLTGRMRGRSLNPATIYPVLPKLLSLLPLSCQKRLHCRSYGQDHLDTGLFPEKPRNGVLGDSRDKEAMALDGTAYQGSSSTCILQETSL
Text: Transporter Cloning: The complete open reading frame of human SMVT (SLC5A6) was amplified from human cDNA prepared from intestinal mRNA. Gene-specific oligonucleotide primers were designed against Genbank sequences (NM-021095). Amplified PCR products were cloned into a modified version of the mammalian expression vector pcDNA3 (termed pMO) that was engineered to contain the 5′ and 3′ untranslated regions from the Xenopus beta-globin gene. All clones were completely sequenced and tested for function by transient transfection in HEK293 cells. Radiolabeled ^3H biotin was used to assess SMVT function (see method below).
Xenopus Oocyte Expression and Electrophysiology: cRNA for oocyte expression was prepared by linearization of plasmid cDNA and in vitro transcription using T7 polymerase (Epicentre Ampliscribe kit). Xenopus oocytes were prepared and maintained as previously described (Collins et al., Proc. Natl. Acad. Sci. 1997, 13:5456-5460) and injected with 10-30 ng RNA. Transport currents were measured 2-6 days later using two-electrode voltage-clamp (Axon Instruments). […] Half-maximal concentrations were calculated using non-linear regression curve fitting software (Prism) with the Hill co-efficient fixed to 1. […]

| SMILES | fraction of administered drug undergoing first pass metabolism [1] | SMVT-specific currents above background, normalized to maximal biotin elicited current (human SMVT (SLC5A6)) |
| --- | --- | --- |
| CC(C)c1cccc(C(C)C)c1O [Propofol, 2,6-diisopropylphenol] | approximately 90% | – |
| CC(C)c1cccc(C(C)C)c1OC(=O)c1ccccc1C(=O)NCCC(=O)O [Compound 101, 3-{[2-[2,6-Bis(isopropyl)phenoxycarbonyl]-benzoyl]amino}-propanoic acid] | – | at least 10 % of Imax for biotin |
